These are literature values, as cited in patent US7144595B2, “Prepared foods containing triglyceride-recrystallized non-esterified phytosterols” (Brandeis University, priority 2001, dated 2006).

The data set has as its system humans.

`CC[C@H](CC[C@@H](C)[C@H]1CC[C@H]2[C@@H]3CC=C4C[C@@H](O)CC[C@]4(C)[C@H]3CC[C@]12C)C(C)C` [beta sitosterol]: the “lowering of serum cholesterol” value (12–18 g per day in divided doses, males with atherosclerosis (Faquhar 1956)) is recorded as 15–20%.
As for `CC[C@H](CC[C@@H](C)[C@H]1CC[C@H]2[C@@H]3CC=C4C[C@@H](O)CC[C@]4(C)[C@H]3CC[C@]12C)C(C)C` [sitosterol], under “9–18 grams per day, coarse powdered form”, the “decrease of plasma cholesterol level” value was “approximately 15%”.
